Results from patent US9999690B2, “Labeled compounds and methods of imaging, diagnosing cartilage disorders and diseases, and monitoring cartilage health using labeled and unlabeled compounds” (Perosphere Inc., priority 2013, dated 2018).
Where “and” joins values, the source holds several entries; their conditions need not be identical. Identical values can stand only once.

Tests used:
[1] = Rat blood PK samples after intravenous injection, Group 1; type: in vivo; conditions: rat Group 1, IV injection, in ng-eq/g
Description: A study was conducted to determine the pharmacokinetics, rates and routes of excretion with mass baseline and tissue distribution of radioactivity, after a single intravenous dose administration of formula XIII (also referred to as [^14C]DAP) was administered to the rats by tail vein intravenous injection at a
The study was conducted on 19 male rats divided into 4 groups. The first group of 6 rats was used for blood collection (Group 1); the second group of 4 rats was used for urine, feces, cage rinses and wipes and carcasses collection (Group 2); the third group of 4 rats was used for expired air collection (Group 3); the fourth group of 5 rats was used for terminal blood/serum and tissue distribution by Quantitative Whole-Body Autoradiography (QWBA) (Group 4).

[2] = In vivo toxicity study, rats; conditions: rat, read-out: Maximum tolerated dose
Description: A study was conducted to test the toxicity of labeled formula XIII in rats and dogs. Maximum tolerated doses were 40 mg/kg for rats and 35 mg/kg for dogs.

[3] = In vivo safety study in humans; conditions: intravenous bolus doses up to 200 mg
Description: A study was conducted to test the safety profile of labeled formula XIII in humans in intravenous bolus doses up to 200 mg.

For [2H]C1([2H])N(CCCNC(=O)[C@@H](N)CCCNC(=N)N)C([2H])([2H])C([2H])([2H])N(CCCNC(=O)[C@@H](N)CCCNC(=N)N)C1([2H])[2H] [formula XIII], the “Rat Blood PK Samples” value ([1]; 0.083 hrs, Mean) was 12494.00, the “Rat Blood PK Samples” value ([1]; 0.083 hrs, individual rats) was 12283.00 and 12343.00 and 12856.00 and the “Rat Blood PK Samples” value ([1]; 0.250 hrs, Mean) was 7636.87. The “Rat Blood PK Samples” value ([1]; 0.250 hrs, individual rats) was 6989.90 and 8433.50 and 7487.20, the “Rat Blood PK Samples” value ([1]; 0.5 hrs, Mean) was 4715.77 and the “Rat Blood PK Samples” value ([1]; 0.5 hrs, individual rats) was 4890.10 and 4595.70 and 4661.50. The “Rat Blood PK Samples” value ([1]; 1 hrs, Mean) was 1639.20, the “Rat Blood PK Samples” value ([1]; 1 hrs, individual rats) was 1277.80 and 2173.10 and 1466.70 and the “Rat Blood PK Samples” value ([1]; 2 hrs, Mean) was 497.04. The “Rat Blood PK Samples” value ([1]; 2 hrs, individual rats) was 513.73 and 503.14 and 474.26, the “Rat Blood PK Samples” value ([1]; 4 hrs, Mean) was 251.03 and the “Rat Blood PK Samples” value ([1]; 4 hrs, individual rats) was 244.30 and 269.75 and 239.03. The “Rat Blood PK Samples” value ([1]; 8 hrs, Mean) was 187.88, the “Rat Blood PK Samples” value ([1]; 8 hrs, individual rats) was 207.32 and 187.12 and 169.19 and the “Rat Blood PK Samples” value ([1]; 12 hrs, Mean) was 145.76. The “Rat Blood PK Samples” value ([1]; 12 hrs, individual rats) was 149.71 and 148.64 and 138.94, the “Rat Blood PK Samples” value ([1]; 24 hrs, Mean) was 99.45 and the “Rat Blood PK Samples” value ([1]; 24 hrs, individual rats) was 105.64 and 108.29 and 84.43. The “Rat Blood PK Samples” value ([1]; 48 hrs, Mean) was 50.56, the “Rat Blood PK Samples” value ([1]; 48 hrs, individual rats) was 49.28 and 52.03 and 50.38 and the “Rat Blood PK Samples” value ([1]; 72 hrs, Mean) was 24.63. For the same compound, the “Rat Blood PK Samples” value ([1]; 72 hrs, individual rats) was 23.54 and 33.09 and 17.27, the “Rat Blood PK Samples” value ([1]; 96 hrs, Mean) was 17.23 and the “Rat Blood PK Samples” value ([1]; 96 hrs, individual rats) was 17.39 and 16.69 and 17.60. The MTD [2] was 40 mg/kg and the safety profile [3] was “excellent safety profile”.
